Measurements as given in US10787416B1, “Crystals of intermediate for benzindene prostaglandins and methods for preparation thereof” (CHIROGATE INTERNATIONAL INC., priority 2020, dated 2020).

How the values were obtained:
[1] = Crystalline form conversion by grinding; type: physicochemical; conditions: grinding at room temperature for about 10 minutes
[2] = Storage stability of the crystalline forms at room temperature; type: physicochemical; conditions: room temperature for six months

| crystalline form transformation on grinding [1] | SMILES | stability (other crystalline forms or degraded products of impurities) [2] |
| --- | --- | --- |
| convert to Form I crystal | CCCCC[C@H](O)CC[C@@H]1[C@H]2Cc3cccc(OCC#N)c3C[C@H]2C[C@H]1O [Form II, 2-(((1R,2R,3aS,9aS)-2-hydroxy-1-((S)-3-hydroxyoctyl)-2,3,3a,4,9,9a-hexahydro-1H-cyclopenta[b]naphthalen-5-yl)oxy)acetonitrile] | – |
| – | CCCCC[C@H](O)CC[C@@H]1[C@H]2Cc3cccc(OCC#N)c3C[C@H]2C[C@H]1O [Form I, 2-(((1R,2R,3aS,9aS)-2-hydroxy-1-((S)-3-hydroxyoctyl)-2,3,3a,4,9,9a-hexahydro-1H-cyclopenta[b]naphthalen-5-yl)oxy)acetonitrile] | no other crystalline forms or degraded products of impurities |
